Assay results from patent US11905306B2 (priority 2021, dated 2024).

Assays:
[1] = in vitro; conditions: African green monkey
[2] = system: SARS-2
[3] = system: Toronto 2 SARS CoV-1; test: organism not typed; assay type: cell-based; conditions: Vero C1008, 72 h, read-out: SARS-1 EC50 (μM) VeroE6
[4] = system: SARS-2; test: microbe, parasite or virus in culture; assay type: cell-based; conditions: Severe acute respiratory syndrome coronavirus 2, read-out: SARS-2 VU-EC50 (μM) (A549-hACE2)
[5] = system: USA_WA1/2020 SARS CoV-2; test: microbe, parasite or virus in culture; assay type: cell-based; conditions: Severe acute respiratory syndrome coronavirus 2, Vero C1008, 72 h, read-out: SARS-2 EC50 (μM) VeroE6

| Structure (SMILES) | CC50 [1] [nM] | SARS-2 VU-VTR @ 20 μM (A549-hACE2) (logs) [2] [logs] | EC50 [3] [µM] | EC50 [4] [µM] | EC50 [5] [µM] |
| --- | --- | --- | --- | --- | --- |
| O=C(Nc1cccc(C#Cc2ccccn2)c1)c1ccc(NC(=O)C2CCC2)cc1 [Compound 9, 4-(Cyclobutanecarboxamido)-N-(3-(pyridin-2-ylethynyl)phenyl)benzamide] | > 30000 | 1.88 | 0.21 | 0.69 | 0.26 |
| O=C(Nc1cc(C#Cc2ccccn2)cc(OC(F)(F)F)c1)c1ccc(N2CCCCC2=O)cc1 [Compound 50, 4-(2-Oxopiperidin-1-yl)-N-(3-(pyridin-2-ylethynyl)-5-(trifluoromethoxy)phenyl)benzamide] | > 30000 | 2.59 | 0.13 | 0.09 | 0.18 |
| O=C1CCc2cc(C(=O)Nc3cccc(C#Cc4ccccn4)c3)ccc2N1 [Compound 1, 2-Oxo-N-(3-(pyridin-2-ylethynyl)phenyl)-1,2,3,4-tetrahydroquinoline-6-carboxamide] | > 30000 | 1.95 | 5.07 ± 2.89 | 7.32 | 5.81 ± 2.51 |
| CC(C)(C)OC(=O)c1ccc(C(=O)Nc2cccc(C#Cc3ccccn3)c2)cc1 [Compound 44, tert-Butyl 4-((3-(pyridin-2-ylethynyl)phenyl)carbamoyl)benzoate] | 24200 | 2.41 | 0.07 | 0.22 | 0.16 |
| O=C(Nc1cccc(C#Cc2ccccn2)c1)c1ccc(N2CCCCC2=O)cc1 [Compound 22, 4-(2-Oxopiperidin-1-yl)-N-(3-(pyridin-2-ylethynyl)phenyl)benzamide] | > 30000 | 2.4 | 1.3 | 1.05 | 1.87 |
| CCOP(=O)(OCC)c1ccc(NC(=O)c2cccc(C#Cc3ccccn3)c2)cc1 [Compound 73, Diethyl (4-(3-(pyridin-2-ylethynyl)benzamido)phenyl)phosphonate] | > 30000 | 2.93 | 0.18 | 0.003 | 0.45 |
| O=C(Nc1cccc(C#Cc2ccccn2)c1)c1ccc(NC(=O)C2CC2)cc1 [Compound 8, 4-(Cyclopropanecarboxamido)-N-(3-(pyridin-2-ylethynyl)phenyl)benzamide] | > 30000 | 1.53 | 0.47 | 1.07 | 0.94 |
| O=C1CCc2cc(NC(=O)c3cccc(C#Cc4ccccn4)c3)ccc2N1 [Compound 54, N-(2-oxo-1,2,3,4-tetrahydroquinolin-6-yl)-3-(pyridin-2-ylethynyl)benzamide] | > 30000 | 2.24 | > 30 | 1.42 | 3 |
| O=C(Nc1ccc(N2CCCCC2=O)cc1)c1cccc(C#Cc2ccccn2)c1 [Compound 59, N-(4-(2-oxopiperidin-1-yl)phenyl)-3-(pyridin-2-ylethynyl)benzamide] | > 30000 | 2.98 | 1.05 | 0.66 | 2 |
